In ChEMBL document CHEMBL1671739, “Reservoir of antimicrobial resistance determinants associated with horizontal gene transfer in clinical isolates of the genus Shewanella” (2010):
In brackets after ≈: the same amount, converted by molar mass.

What was measured:
Assay type in all cases: functional
Shewanella putrefaciens [1] = experiment: Antimicrobial activity against Shewanella putrefaciens Sp117 harboring intI1,sul1,sul2 and beta-lactamase OXA-48 like genes by CLSI method
Shewanella putrefaciens [2] = experiment: Antimicrobial activity against Shewanella putrefaciens Sp95 harboring intI1,sul1,sul2 and beta-lactamase OXA-48 like genes by CLSI method
Shewanella putrefaciens [3] = experiment: Antimicrobial activity against Shewanella putrefaciens Sp31 harboring intI1 and beta-lactamase OXA-48 like genes by CLSI method
Shewanella algae [4] = experiment: Antimicrobial activity against Shewanella algae Sa9 harboring intI1, intI2, sul1 and sul2 genes by CLSI method
Shewanella algae [5] = experiment: Antimicrobial activity against Shewanella algae Sa78 harboring sul2 gene by CLSI method
Shewanella algae [6] = experiment: Antimicrobial activity against Shewanella algae Sa74 harboring intI1, intI2, sul1 and sul2 genes by CLSI method
Shewanella algae [7] = experiment: Antimicrobial activity against Shewanella algae Sa10 harboring intI1, intI2, sul1 and sul2 genes by CLSI method
Shewanella algae [8] = experiment: Antimicrobial activity against Shewanella algae Sa82 harboring intI1, intI2, sul1 and sul2 genes by CLSI method
Shewanella algae [9] = experiment: Antimicrobial activity against Shewanella algae Sa392 harboring intI1, intI2, sul1 and sul2 genes by CLSI method
Shewanella algae [10] = experiment: Antimicrobial activity against Shewanella algae Sa2 harboring intI1, intI2 and sul1 genes by CLSI method

| SMILES | MIC (Shewanella putrefaciens [1]) [µg/mL] | MIC (Shewanella putrefaciens [2]) [µg/mL] | MIC (Shewanella putrefaciens [3]) [µg/mL] | MIC (Shewanella algae [4]) [µg/mL] | MIC (Shewanella algae [5]) [µg/mL] | MIC (Shewanella algae [6]) [µg/mL] | MIC (Shewanella algae [7]) [µg/mL] | MIC (Shewanella algae [8]) [µg/mL] | MIC (Shewanella algae [9]) [µg/mL] | MIC (Shewanella algae [10]) [µg/mL] |
| --- | --- | --- | --- | --- | --- | --- | --- | --- | --- | --- |
| C[C@@H](O)[C@H]1C(=O)N2C(C(=O)O)=C(SCCNC=N)C[C@H]12 [IMIPENEM ANHYDROUS] | 1 (≈ 3.34 µM) | 0.5 (≈ 1.67 µM) | 0.25 (≈ 0.835 µM) | 2 (≈ 6.68 µM) | 4 (≈ 13.4 µM) | 4 (≈ 13.4 µM) | 8 (≈ 26.7 µM) | 0.25 (≈ 0.835 µM) | 4 (≈ 13.4 µM) | 0.25 (≈ 0.835 µM) |
| C[C@@H](O)[C@H]1C(=O)N2C(C(=O)O)=C(S[C@@H]3CN[C@H](C(=O)N(C)C)C3)[C@H](C)[C@H]12 [MEROPENEM] | 4 (≈ 10.4 µM) | 0.25 (≈ 0.652 µM) | 0.125 (≈ 0.326 µM) | 0.125 (≈ 0.326 µM) | 0.25 (≈ 0.652 µM) | 0.0094 (≈ 0.0245 µM) | 1 (≈ 2.61 µM) | 0.38 (≈ 0.991 µM) | 1 (≈ 2.61 µM) | 0.032 (≈ 0.0834 µM) |
